Where two headings read alike, the source gives them in different places.
Test system: primary rat mixed cortical cells
Assay: In vitro myelination assay (MBP positive myelin strands, fold myelin pixels above background)
Format: cell-based
Conditions: Rattus norvegicus; for fold induction at 1 µM: 1.0 μM compound; for fold induction at 10 µM: 10.0 μM compound
Outline: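 Read-out is total MBP-positive myelin strand pixels per well, detected by custom ridge-tracing software and reported as fold over untreated baseline. Primary P1 rat mixed cortical cells received compound (1.0 or 10.0 μM) for 14 days, with medium half-replaced on days 6 and 10. Standard deviation was taken across all replicates.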

[1] = relative to baseline of no added compound, read-out: Fold myelin pixels above background
[2] = relative to baseline of no added compound, read-out: Fold myelin pixels above background, 1.0 μM
[3] = relative to baseline of no added compound, read-out: Fold myelin pixels above background, 10.0 μM
[4] = read-out: Fold myelin pixels above background relative to baseline of no added compound

Structure (SMILES)	fold induction at 1 µM [1]	fold induction at 10 µM [1]	fold induction at 1 µM [2]	fold induction at 10 µM [3]	also measured
Cc1cc(Nc2ncn(-c3cc(F)cc(F)c3)n2)cc(N2CCC3OCCC3C2)c1 (stereo not drawn) [Compound 528, N-[3-(3,3a,4,6,7,7a-hexahydro-2H-furo[3,2-c]pyridin-5-yl)-5-methyl-phenyl]-1-(3,5-difluorophenyl)-1,2,4-triazol-3-amine]	100 to 1000	100 to 1000	–	–	–
Cc1cc(Nc2ncn(-c3ccccc3Cl)n2)cc(N2CCN(C)CC2)c1 [Compound 428, 1-(2-chlorophenyl)-N-[3-methyl-5-(4-methylpiperazin-1-yl)phenyl]-1,2,4-triazol-3-amine]	1 to 10	10 to 100	–	–	–
CCc1cc(Nc2ncn(-c3cnccn3)n2)cc(N2CCN(C3(C)COC3)CC2)c1 [Compound 489, N-[3-ethyl-5-[4-(3-methyloxetan-3-yl)piperazin-1-yl]phenyl]-1-pyrazin-2-yl-1,2,4-triazol-3-amine]	10 to 100	10 to 100	–	–	–
Cc1cc(Nc2ncn(-c3ccc(F)c(F)c3)n2)cc(O[C@H]2CCN(C3COC3)C2)c1 [Compound 52, 1-(3,4-difluorophenyl)-N-[3-methyl-5-[(3S)-1-(oxetan-3-yl)pyrrolidin-3-yl]oxy-phenyl]-1,2,4-triazol-3-amine]	–	–	1000 to 10000	≤ 1	–
CC1=NOC(CNc2cc(C)cc(Nc3ncn(-c4cc(F)cc(F)c4)n3)c2)C1 (stereo not drawn) [Compound 1004, N1-[1-(3,5-difluorophenyl)-1,2,4-triazol-3-yl]-5-methyl-N3-[(3-methyl-4,5-dihydroisoxazol-5-yl)methyl]benzene-1,3-diamine]	–	–	–	–	fold induction at 1 µM [4]: 1 to 10; fold induction at 10 µM [4]: 1 to 10
CC(=O)N1CCCC(c2cc(C)cc(Nc3ncn(-c4cnccn4)n3)c2)C1 (stereo not drawn) [Compound 300, 1-[3-[3-methyl-5-[(1-pyrazin-2-yl-1,2,4-triazol-3-yl)amino]phenyl]-1-piperidyl]ethanone]	–	–	100 to 1000	≤ 1	–
Cc1cc(Nc2ncn(-c3ccccc3)n2)cc(NC2CCN(C3COC3)C2)c1 (stereo not drawn) [Compound 309, 5-methyl-N1-[1-(oxetan-3-yl)pyrrolidin-3-yl]-N3-(1-phenyl-1,2,4-triazol-3-yl)benzene-1,3-diamine]	–	–	1000 to 10000	≤ 1	–
Cc1cc(Nc2ncn(-c3cc(F)cc(OC(C)C)c3)n2)cc(N2CCN(C)CC2)c1 [Compound 205, 1-(3-fluoro-5-isopropoxy-phenyl)-N-[3-methyl-5-(4-methylpiperazin-1-yl)phenyl]-1,2,4-triazol-3-amine]	–	–	100 to 1000	≤ 1	–
Cc1cc(Nc2ncn(-c3cc(F)cc(F)c3)n2)nc(N2CCN([C@H]3CCOC3)CC2)c1 (single isomer, unassigned) [Compound 740]	10 to 100	10 to 100	–	–	–
COC1CC(Nc2cc(C)cc(Nc3ncn(-c4cc(F)cc(F)c4)n3)c2)C1 (stereo not drawn) [Compound 520, N3-[1-(3,5-difluorophenyl)-1,2,4-triazol-3-yl]-N1-(3-methoxycyclobutyl)-5-methyl-benzene-1,3-diamine]	100 to 1000	≤ 1	–	–	–
Cc1cc(NC[C@@]2(C)CCCO2)cc(Nc2ncn(-c3cc(F)cc(F)c3)n2)c1 (stereo in doubt) [Compound 490, N1-[1-(3,5-difluorophenyl)-1,2,4-triazol-3-yl]-5-methyl-N3-[(2-methyltetrahydrofuran-2-yl)methyl]benzene-1,3-diamine]	10 to 100	10 to 100	–	–	–
Cc1cc(Nc2ncn(-c3cc(F)cc(F)c3)n2)cc([C@H]2CN(C3COC3)CCO2)c1 (single isomer, unassigned) [Compound 623]	10 to 100	1 to 10	–	–	–
CC(C)Oc1cc(Nc2ncn(-c3cc(F)cc(F)c3)n2)cc(N2CCN(C3COC3)CC2)c1 [Compound 653, 1-(3,5-difluorophenyl)-N-[3-isopropoxy-5-[4-(oxetan-3-yl)piperazin-1-yl]phenyl]-1,2,4-triazol-3-amine]	10 to 100	≤ 1	–	–	–
Fc1cc(Nc2ncn(-c3cccc(C(F)F)c3)n2)cc(N2CCN(C3COC3)CC2)c1 [Compound 794, 1-[3-(difluoromethyl)phenyl]-N-[3-fluoro-5-[4-(oxetan-3-yl)piperazin-1-yl]phenyl]-1,2,4-triazol-3-amine]	–	–	–	–	fold induction at 1 µM [4]: 1 to 10; fold induction at 10 µM [4]: ≤ 1
Cc1cc(Nc2ncn(-c3ccccc3)n2)cc(N2CCN(C3(C)COC3)CC2)c1 [Compound 436, N-[3-methyl-5-[4-(3-methyloxetan-3-yl)piperazin-1-yl]phenyl]-1-phenyl-1,2,4-triazol-3-amine]	1000 to 10000	100 to 1000	–	–	–
Cc1cc(Nc2ncn(-c3cccc(F)c3)n2)cc(N2CC(N3CCOCC3)C2)c1 [Compound 721, 1-(3-fluorophenyl)-N-[3-methyl-5-(3-morpholinoazetidin-1-yl)phenyl]-1,2,4-triazol-3-amine]	10 to 100	≤ 1	–	–	–
Cc1cc(Nc2ncn(-c3ccccc3)n2)cc(N2CCCN(C3CC3)CC2)c1 [Compound 337, N-[3-(4-cyclopropyl-1,4-diazepan-1-yl)-5-methyl-phenyl]-1-phenyl-1,2,4-triazol-3-amine]	–	–	100 to 1000	≤ 1	–
COCCC1CN(c2cc(C)cc(Nc3ncn(-c4cc(F)cc(F)c4)n3)c2)CCO1 (stereo not drawn) [Compound 1030, 1-(3,5-difluorophenyl)-N-[3-[2-(2-methoxyethyl)morpholin-4-yl]-5-methyl-phenyl]-1,2,4-triazol-3-amine]	–	–	–	–	fold induction at 1 µM [4]: 10 to 100; fold induction at 10 µM [4]: 1 to 10
Clc1cncc(-n2cnc(Nc3cc(C4CC4)cc(N4CCN(C5COC5)CC4)c3)n2)c1 [Compound 134, 1-(5-chloro-3-pyridyl)-N-[3-cyclopropyl-5-[4-(oxetan-3-yl)piperazin-1-yl]phenyl]-1,2,4-triazol-3-amine]	–	–	100 to 1000	10 to 100	–
Cc1cc(-n2cnc(Nc3cc(F)cc(N4CCN(C5COC5)CC4)c3)n2)ccc1F [Compound 647, 1-(4-fluoro-3-methyl-phenyl)-N-[3-fluoro-5-[4-(oxetan-3-yl)piperazin-1-yl]phenyl]-1,2,4-triazol-3-amine]	1 to 10	≤ 1	–	–	–
Cc1cc(Nc2ncn(-c3cc(F)cc(F)c3)n2)cc(N2CCN(C3COC3)CC2)n1 [Compound 1, N-[1-(3,5-difluorophenyl)-1,2,4-triazol-3-yl]-2-methyl-6-[4-(oxetan-3-yl)piperazin-1-yl]pyridin-4-amine]	–	–	1000 to 10000	100 to 1000	–
CN1CCN(c2cc(Nc3ncn(-c4ccnc(F)c4)n3)cc(C(F)(F)F)c2)CC1 [Compound 226, 1-(2-fluoro-4-pyridyl)-N-[3-(4-methylpiperazin-1-yl)-5-(trifluoromethyl)phenyl]-1,2,4-triazol-3-amine]	–	–	100 to 1000	≤ 1	–
Cc1cc(Nc2ncn(-c3ccc(C#N)c(F)c3)n2)cc(N2CCN(C3COC3)CC2)c1 [Compound 140, 2-fluoro-4-[3-[3-methyl-5-[4-(oxetan-3-yl)piperazin-1-yl]anilino]-1,2,4-triazol-1-yl]benzonitrile]	–	–	1 to 10	1 to 10	–
Cc1cc(Nc2ncn(-c3cc(F)cc(F)c3)n2)cc(N2CCN(C)C(C)(C)C2)c1 [Compound 771, 1-(3,5-difluorophenyl)-N-[3-methyl-5-(3,3,4-trimethylpiperazin-1-yl)phenyl]-1,2,4-triazol-3-amine]	10 to 100	≤ 1	–	–	–
Cc1cc(Nc2ncn(-c3cc(F)cc(F)c3)n2)cc(C2CCN(C)CC2)c1 [Compound 151, 1-(3,5-difluorophenyl)-N-[3-methyl-5-(1-methyl-4-piperidyl)phenyl]-1,2,4-triazol-3-amine]	–	–	10 to 100	≤ 1	–
Cc1cc(Nc2ccn(C)n2)cc(Nc2ncn(-c3ccccc3)n2)c1 [Compound 828, 5-methyl-N3-(1-methylpyrazol-3-yl)-N1-(1-phenyl-1,2,4-triazol-3-yl)benzene-1,3-diamine]	–	–	–	–	fold induction at 1 µM [4]: 1 to 10; fold induction at 10 µM [4]: ≤ 1
Cc1cc(Nc2ncn(-c3cc(F)cc(F)c3)n2)cc(N2CC(F)(CO)C2)c1 [Compound 1079, [1-[3-[[1-(3,5-difluorophenyl)-1,2,4-triazol-3-yl]amino]-5-methyl-phenyl]-3-fluoro-azetidin-3-yl]methanol]	–	–	–	–	fold induction at 1 µM [4]: 10 to 100; fold induction at 10 µM [4]: ≤ 1
Cc1cc(Nc2ncn(-c3cc(F)cc(F)c3)n2)cc(N2CCC(N3CCCC3=O)CC2)c1 [Compound 161, 1-[1-[3-[[1-(3,5-difluorophenyl)-1,2,4-triazol-3-yl]amino]-5-methyl-phenyl]-4-piperidyl]pyrrolidin-2-one]	–	–	10 to 100	10 to 100	–
Cc1cc(Nc2ncn(-c3cc(F)cc(F)c3)n2)cc(NC2CCOC(C3CC3)C2)c1 (stereo not drawn) [Compound 918, N1-(2-cyclopropyltetrahydropyran-4-yl)-N3-[1-(3,5-difluorophenyl)-1,2,4-triazol-3-yl]-5-methyl-benzene-1,3-diamine]	–	–	–	–	fold induction at 1 µM [4]: 1 to 10; fold induction at 10 µM [4]: ≤ 1
Cc1cc(Nc2ncn(-c3cc(F)cc(F)c3)n2)cc(N2C[C@@H]3C[C@H]2CO3)c1 [Compound 822, 1-(3,5-difluorophenyl)-N-[3-methyl-5-[(1S,4S)-2-oxa-5-azabicyclo[2.2.1]heptan-5-yl]phenyl]-1,2,4-triazol-3-amine]	–	–	–	–	fold induction at 1 µM [4]: 10 to 100; fold induction at 10 µM [4]: ≤ 1

Reference: patent publication US10766869B2, “Triazoles for the treatment of demyelinating dieases” (Vertex Pharmaceuticals Incorporated, priority 2015, dated 2020)
